Measured values as given in patent US8268961B2, “Antibacterial peptides and analogues thereof” (Universita Degli Studi di Siena, priority 2004, dated 2012).
Read-outs that look alike come from different tables or passages of the source. Positions of bridges follow the written chain, without caps; N, C: chain ends. Chains are numbered I, II in the order given. No end group written: not given here.

What was measured:
[1] = test system: murine macrophage cells J774 A.1; test: Cytotoxicity test by MTT; format: cell-based, mouse
Procedure: The cytotoxicity of antibacterial MAP peptides was evaluated on different eukaryotic cell lines by a colorimetric assay (MTT). This assay measures the cells' ability to convert a soluble tetrazolium salt into an insoluble precipitate: formazan. The cytotoxicity of M1 was evaluated on murine macrophagic cells (J774 A.1), murine myeloma cells (SPO) and Chinese hamster ovary epithelium cells (CHO K1). As shown FIG. 4, even at high concentrations (1 mg/ml) M1 cytotoxicity on CHO K1 cells and on SPO cells is low (percent survival is 80-90%).
For cytotoxicity tests, different cell lines were used: murine myeloma cells SPO, hamster ovary epithelium cells CHO K 1, murine macrophage cells J774 A.1 and human keratinocytes HaCaT. The cells were plated in medium in RPMI 1640 (SPO and CHO K 1) and DMEM (J774 A.1 and HaCaT) with antibiotics and bovine foetal serum at 10%, in 96-well plates at the concentration of 6×10^4 (SPO, CHO K1 and J774 A.1) and 3×10^4 (HaCaT). Peptides, previously filtered with a 0.2 μm filter disk (Whatman), were added at various concentrations to the different cell lines and left in incubation over night at 37° C. Cell viability was determined adding the MTT tetrazolium salt at the concentration of 0.5 mg/ml and incubating for 90 min. The cells were solubilised with a solution at pH 4.5 containing SDS 10% and dimethylformamide 45% and read at the dual wavelength of 595/650 nm with a plate reader.

[2] = test system: Staphylococus aureus MIU-68A; format: cell-based, Staphylococcus aureus
Source text: (§1) MIC is defined as the lowest concentration, in an antibiotic dilution range, that inhibits visible bacterial growth. The importance of MIC sensitivity test is based on the principle that in vitro sensitivity provides a predictive indication of the in vivo efficacy of the antibiotic therapy. Values are expressed as molar concentration and compared to MIC values obtained with commercially available antibiotics such as amikacin, ceftriaxone and levofloxacin (Table 3).
(§2) Reference strains (Escherichia coli ATCC 25922, Pseudomonas aeruginosa ATCC 27853, Staphylococus aureus ATCC 25923 and Chryseobacterium meningosepticum CCUG 4310) and several recent clinical isolates (including multidrug-resistant ones) of various species (Table 2) were used for conventional susceptibility testing experiments. Minimum Inhibitory Concentration (MIC) was determined by a standard microdilution assay as recommended by the National Commitee for Clinical Laboratory Standards (NCCLS) using cation-supplemented Mueller-Hinton (MH) broth (Oxoid Ltd. Basingstoke, UK) and a bacterial inoculum of 5×10^4 CFU per well, in a final volume of 100 μl. Results were recorded by visual inspection after 24 h of incubation at 37° C.

[3] = test system: Morganella morganii W03VA1342; test: MIC, standard microdilution assay; format: cell-based; settings: Morganella morganii W03VA1342, FQR ESCR (ESBL/CTX-M-1)
Source text: as §1, §2

[4] = test system: Serratia marcescens W99FI0111; test: MIC, standard microdilution assay; format: cell-based; settings: Serratia marcescens W99FI0111, FQR AGR ESCR (ESBL/SHV-5)
Source text: as §1, §2

[5] = test system: Providencia stuartii W03FI0001; test: MIC, standard microdilution assay; format: cell-based; settings: Providencia stuartii W03FI0001, AGR ESCR (ESBL/PER-1)
Source text: as §1, §2

[6] = test system: Stenotrophomonas maltophilia PT4/99; test: MIC, standard microdilution assay; format: cell-based; settings: Stenotrophomonas maltophilia PT4/99, wild-type profile
Source text: as §1, §2

[7] = test system: Proteus mirabilis W99FI0089; test: MIC, standard microdilution assay; format: cell-based; settings: Proteus mirabilis W99FI0089, FQR
Source text: as §1, §2

[8] = test system: Chryseobacterium meningosepticum CCUG4310; test: MIC, standard microdilution assay; format: cell-based; settings: Chryseobacterium meningosepticum CCUG4310, reference strain
Source text: as §1, §2

[9] = test system: P. aeruginosa ATCC 27853; test: Minimal bactericidal concentration (MBC); format: cell-based
Procedure: as §2
(§3) The MBC was determined as recommended by the National Committee for Clinical Laboratory Standards (NCCLS) on strains of E. coli ATCC 25922 and P. aeruginosa ATCC 27853.

[10] = test system: E. coli ATCC 25922; test: Minimal bactericidal concentration (MBC); format: cell-based
Procedure: as §2, §3

[11] = test system: E. coli strain TG1; test: Test of antibacterial activity (colony growth inhibition) on E. coli strain TG1; format: cell-based; settings: E. coli TG1, colony counting vs control without peptide
Summary of the method: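 E. coli TG1 (OD600 0.2) was incubated 75 min at 37 °C with peptide in PBS at 0.12–2 mg/ml. Cells were then diluted 1:1000, plated on 2×TY agar and grown overnight at 30 °C, and colonies were counted against an untreated control.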

“I: QKKIRVRLSAKKA-OH / II: QKKIRVRLSAK / III: QKKIRVRLSA / IV: QKKIRVRLSA (amide I:11-IV:C, I:12-II:C, II:11-III:C) [M6, QKKIRVRLSA]” was tested, and the “Concentration at and over which a drop in cell viability was evident (MTT)” value [1] was no less than 125 µg/mL, the “Vitality of J774 A.1 cells as the concentration of MAP peptides increases (MTT)” value [1] was “decreases” and the “MIC (Molarity)” value [2] was 49 µM. The “MIC (Molarity)” value [3] was greater than 49 µM, the “MIC (Molarity)” value [4] was greater than 49 µM and the “MIC (Molarity)” value [5] was greater than 49 µM. The “MIC (Molarity)” value [6] was greater than 49 µM, the “MIC (Molarity)” value [7] was greater than 49 µM and the “MIC (Molarity)” value [8] was greater than 49 µM. The “MBC (minimal concentration able to kill 99.9% of the inoculum) compared with MIC” value [9] was “equal to the calculated values of MIC”, the “MBC (minimal concentration able to kill 99.9% of the inoculum) compared with MIC” value ([9]; listed as QKKIRVRLSA) was “equal to the corresponding MIC values” and the “MBC (minimal concentration able to kill 99.9% of the inoculum) compared with MIC” value [10] was “equal to the calculated values of MIC”. The “MBC (minimal concentration able to kill 99.9% of the inoculum) compared with MIC” value ([10]; listed as QKKIRVRLSA) was “equal to the corresponding MIC values” and the “Antibacterial activity on E. coli TG1 colony growth” value [11] was “good antibacterial activity”.
